From US7834148B2, “Protein phosphorylation imaging systems, methods of making phosphorylation imaging systems, and methods of use thereof” (Stanford University, priority 2006, dated 2010)

Legend:
[1] = system: Akt kinase activity; experiment: Akt kinase sensor complemented FL activity, luminometer assay in transiently transfected 293T cells; format: cell-based, human
Experimental: Next the hypothesis that activation of Akt activity would lead to increased phosphorylation of AKM and interaction with FHA2 in AS1T was tested, and subsequent inhibition of split FL complementation. 293T cells transiently transfected with AS1T and AS1A were treated with platelet derived growth factor (PDGF) for 30 minutes prior to analysis of FL activity.
To increase the dynamic range of AS1T for indirect monitoring of Akt kinase activity, the original FL fragments (NFL: 1-416/CFL: 398-550) were replaced with the optimal split FL sites (1-398/394-550) as AS2T. The corresponding FL fragments in AS1A were also replaced to create AS2A. 293T cells transiently transfected with AS2T or AS2A were treated with different concentrations of LY or carrier control for 24 hours prior to analysis of FL activity. […] To determine if the specificity of AS2 can be restored by using more rigid linkers, the flexible (G4S)3 linkers were replaced with (EAAAR)3 used for intramolecular folding sensors previously used to studying FRB/FKBP12 interactions. However, there was a loss of specificity in response to LY.
(§1) Transfections were performed in 80% confluent 24 hr-old cultures of 293T and BT474 cells. For transient transfection, 250 ng/well of pcDNA molar equivalent of each AS1A and AS1T were used in 12-well tissue culture plates and 5 μl Lipofectamine 2000 was used per transfection following the manufacturer's instructions. 5 ng of pcDNA3.1(+) vector expressing full length RL was co-transfected per well to normalize for transfection efficiency. […]
(§2) In brief, transfected cells were lysed in 200 μl of ice-cold 1× passive lysis buffer supplied by Promega and were shaken for 15 mins on ice. […] RL activity was determined as described for FL activity, except 0.5 μg of coelenterazine dissolved in 100 μl of was used. Protein concentrations in cell lysates were determined by Bradford Assay (Bio-Rad). FL activities were normalized for protein content and for transfection efficiency using RL activity and expressed as relative light units per microgram protein per minute of counting (RLU/μg protein/min).

[2] = system: Akt kinase activity; experiment: Akt kinase sensor (AS1T/AS1A) complemented FL activity, luminometer assay in transiently transfected BT474 cells; format: cell-based, human; conditions: BT474 transiently transfected with AS1T, 24 hours, at 50 μM, relative to carrier control, p<0.05
Experimental: FL activity was determined by luminometer assays using cell lysates and normalized for protein content and transfection efficiency. LY treatment of BT474 cells transiently transfected with AS1T led to a dose dependent increase in FL activity in (1.3-fold maximum increase, p<0.05 at 50 μM, relative to carrier control treated cells).
as §1, §2

[3] = system: Akt kinase activity; experiment: Akt kinase sensor complemented FL activity, bioluminescence imaging of intact 293T/AS1T and 293T/AS1A stable cells; format: cell-based, human; conditions: AS1T sensor
Experimental: Complemented FL activity at each time point was determined by bioluminescence imaging of intact cells by addition of D-luciferin (FIG. 7a), prior to normalization for protein content (FIG. 7b).
FL activities in intact cells were determined by bioluminescence imaging of intact cells as described above. Cells were lysed in 1% NP40 buffer (Cell Signaling, Beverly, Mass.) for 15 mins on ice followed by centrifugation at 1×10^4 g to remove cell debris. Protein concentrations were determined by Biorad protein Dc assay (Biorad). FL activities were normalized to protein content and then to that of carrier control treated cells and expressed as normalized FL activity±standard error of means (S.E.M.)

[4] = system: insulin receptor substrate 1 (IRS-1) phosphorylation; experiment: Bioluminescence CCD imaging of split Firefly Luciferase IRS-1 phosphorylation sensor, CHO-IR cells implanted in living mice; format: in vivo, nude mice; conditions: mice with implanted sensor-transfected CHO-IR cells, 4 IU s.c. in twelve hour intervals, imaged 24 hours later
Experimental: FIG. 5 illustrates a bioluminescence CCD imaging of a split Firefly Luciferase based Insulin Receptor Substrate 1 (IRS-1) phosphorylation sensor in a living mouse.
Four nude mice were implanted with 5 million CHO-IR cells transiently transfected with the fusion split firefly IRS-1 phosphorylation sensor with linker (EAAAR)2 and also with 5 million CHO-IR mock-transfected cells at two separate sites. The mice were imaged using D-Luciferin (3 mg i.p.) with a CCD camera. Two mice were then given 4 IU human long-acting insulin (s.c.) in twelve hour intervals, and two were not given insulin and all four were imaged again 24 hours later. Consistent results were obtained in the 2 mice in each group with exposure to insulin leading to an increase in signal (˜5-fold induction) and lack of insulin exposure leading to minimal change (˜1.3 fold induction).

[5] = system: insulin receptor substrate 1 (IRS-1) phosphorylation; experiment: Renilla Luciferase based IRS-1 phosphorylation sensor, luminometer assay in transfected CHO-IR cells; format: cell-based; conditions: 24 h incubation, insulin 0, 25, 50 and 100 nM
Experimental: FIG. 3 is a graph of the activation of the Renilla Luciferase based IRS-1 phosphorylation sensor as a function of Insulin concentration. Luminometer assay result of CHO-IR cells transfected with a phosphorylation sensor vector and assayed after 24 h of incubation with the addition of different concentrations of insulin (0, 25, 50 and 100 nM).
The IRS-1 phosphorylation sensor was tested based on split renilla and split Firefly Luciferase in transient transfection assays in cell culture with and without insulin. The single fusion vector (FIG. 2) was utilized with split Renilla Luciferase (split site 229, non-self complementing), with a semi-rigid peptide ((EAAAR)2 (SEQ ID NO: 36)) through screening of different peptides. The phosphorylation domain was the PTB peptide and was chosen to be an 13 amino acid peptide (SEQ ID NO: 28) including Y941 (tyrosine at position 941 of IRS-1). The substrate recognition domain was chosen to be the SH2 domain of PI3 Kinase. The vector constructed was transiently transfected in CHO-IR (expressing the insulin receptor) and 293T cells (not expressing the insulin receptor).

[6] = system: insulin receptor substrate 1 (IRS-1) phosphorylation; experiment: Firefly Luciferase based IRS-1 phosphorylation sensor in transfected CHO-IR cells; format: cell-based; conditions: presence of insulin compared to no insulin exposure
Text: FIG. 4 is a graph of the activation of the Firefly Luciferase based IRS-1 phosphorylation sensor as a function of Insulin exposure. Results of CHO-IR cells transfected and co-transfected with a self-complementing Firefly Luciferase based IRS-1 sensor used for studying insulin mediated IRS-1 phosphorylation. A two-vector system, single fusion vector with and without a semi-rigid linker were all compared. Greater absolute signal is seen with the fusion vector strategies.
Next, constructs were made using self-complementing split fragments of Firefly Luciferase with a semi-rigid linker or without any linker, and these were compared with two separate vectors (non-fusion approach) in CHO-IR cells in the presence and absence of insulin (FIG. 3). The results of these studies show signal from all three vectors in the presence of insulin, but the highest absolute signal is from the two fusion vectors. Furthermore, for the two fusion vectors the background signal is lowest (prior to insulin exposure) when using the fusion vector with a semi-rigid linker.
The fusion strategy increases absolute signal as compared to using two separate vectors. Furthermore, using a semi-rigid linker decreases background signal in the fusion vector strategy. […]

O=c1cc(N2CCOCC2)oc2c(-c3ccccc3)cccc12 [LY, LY294002]
increase in FL activity with AS2T or AS2A compared to AS1T or AS1A ([1]; 293T transiently transfected, LY for 24 hours, unpublished data): 2 fold | maximum increase in FL activity [2]: 1.3 fold | maximum induction (dynamic range of AS1T) [3]: 4 fold

insulin
increase in signal (induction) [4]: ~5 fold induction | complemented Renilla Luciferase activity [5]: concentration dependent increase | signal of split bioluminescence reporter IRS-1 sensor [6]: increased signal

platelet derived growth factor [PDGF]
FL activity ([1]; 293T transiently transfected with AS1A, 30 minutes treatment, p>0.05): did not significantly decrease | decrease in FL activity ([1]; 293T transiently transfected with AS1T, 30 minutes treatment, vs carrier control, p<0.05): 60%
